Measured values taken from US20250120967A1, “TYROSINE KINASES INHIBITORS AND USES THEREOF” (GREAT NOVEL THERAPEUTICS BIOTECH & MEDICALS CORPORATION, priority 2023, published 2025).
pIC50: −log10 of the molar value.

Key:
[1] = target: FLT1 (VEGFR1) (Homo sapiens, UniProt P17948); assay: Tyrosine kinase inhibition assay; type: biochemical; settings: single concentration 1.0 μM, read-out: percent inhibition
Description: (§1) Tyrosine kinase inhibition assays were performed at ThermoFisher Life Technologies (Madison, WI, USA) using standard protocols (SelectScreen Biochemical Profiling Service, Thermo Fisher Scientific). ATP concentrations used were at the apparent Km. Test compounds were screened in 1% dimethylsulffoxide (DMSO) (final concentration) in the well. For 10-point titrations, 3-fold serial dilutions were conducted from the starting concentration of […]. All Peptide/Kinase Mixtures were diluted to a 2× working concentration in the appropriate Kinase Buffer. All ATP Solutions were diluted to a 4× working concentration in Kinase Buffer (50 mM HEPES pH 7.5, 0.01% BRIJ-35, 10 mM MgCl2, 1 mM EGTA). The apparent ATP Km was previously determined using a Z′-LYTE assay. The Development Reagent was diluted in Development Buffer.
(§2) The inhibition activities of compounds were determined in biochemical assays using single concentration (1.0 μM) measurements. The results were provided as percent inhibition values. […] 99 different tyrosine kinases were used.

[2] = target: EGFR (ErbB1) (Homo sapiens, UniProt P00533); assay: Tyrosine kinase inhibition assay; type: biochemical; settings: single concentration 1.0 μM, read-out: percent inhibition
Description: as §1, §2

[3] = target: PTK2 (FAK) (Homo sapiens, UniProt Q05397); assay: Tyrosine kinase inhibition assay; type: biochemical; settings: single concentration 1.0 μM, read-out: percent inhibition
Description: as §1, §2

[4] = target: T1, EPHB2 (Homo sapiens, UniProt P29323); assay: Tyrosine kinase inhibition assay; type: biochemical; settings: single concentration 1.0 μM, read-out: percent inhibition
T1 sequence (P29323 19-1055): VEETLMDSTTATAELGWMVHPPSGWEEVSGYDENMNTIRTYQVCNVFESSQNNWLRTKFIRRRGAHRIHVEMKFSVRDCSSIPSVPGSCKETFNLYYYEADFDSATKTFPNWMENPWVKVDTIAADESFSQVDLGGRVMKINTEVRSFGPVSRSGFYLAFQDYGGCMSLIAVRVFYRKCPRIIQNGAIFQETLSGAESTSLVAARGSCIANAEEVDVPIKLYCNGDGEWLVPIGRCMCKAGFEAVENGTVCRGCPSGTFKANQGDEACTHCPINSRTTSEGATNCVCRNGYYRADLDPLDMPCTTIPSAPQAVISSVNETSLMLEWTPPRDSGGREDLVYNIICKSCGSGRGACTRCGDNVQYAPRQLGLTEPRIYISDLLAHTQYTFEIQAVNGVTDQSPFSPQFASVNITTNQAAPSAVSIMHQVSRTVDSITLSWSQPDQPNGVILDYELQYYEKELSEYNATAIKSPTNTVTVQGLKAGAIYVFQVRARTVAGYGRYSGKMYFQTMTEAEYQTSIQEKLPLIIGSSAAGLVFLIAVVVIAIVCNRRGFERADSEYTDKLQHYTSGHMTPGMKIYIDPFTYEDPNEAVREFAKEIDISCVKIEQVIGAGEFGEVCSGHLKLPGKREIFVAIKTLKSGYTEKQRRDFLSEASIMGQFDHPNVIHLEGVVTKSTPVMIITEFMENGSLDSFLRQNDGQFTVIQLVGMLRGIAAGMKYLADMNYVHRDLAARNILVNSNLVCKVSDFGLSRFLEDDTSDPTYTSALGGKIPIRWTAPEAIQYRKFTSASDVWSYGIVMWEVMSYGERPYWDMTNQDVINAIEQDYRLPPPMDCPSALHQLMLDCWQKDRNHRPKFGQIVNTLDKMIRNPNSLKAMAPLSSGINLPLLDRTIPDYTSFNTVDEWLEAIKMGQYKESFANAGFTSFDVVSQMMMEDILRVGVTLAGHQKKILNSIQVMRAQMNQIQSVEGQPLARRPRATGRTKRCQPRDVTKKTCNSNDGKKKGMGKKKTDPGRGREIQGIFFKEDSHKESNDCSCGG
Description: as §1, §2

[5] = target: ABL1 (Homo sapiens, UniProt P00519); assay: Tyrosine kinase inhibition assay; type: biochemical; settings: single concentration 1.0 μM, read-out: percent inhibition
Description: as §1, §2

[6] = target: MET (cMet) (Homo sapiens, UniProt P08581); assay: Tyrosine kinase inhibition assay; type: biochemical; settings: for inhibition at 1 µM: single concentration 1.0 μM, read-out: percent inhibition; for pIC50: read-out: IC50 of compound
Description: as §1
The inhibition activities of compounds were determined in biochemical assays using single concentration (1.0 μM) measurements. The results were provided as percent inhibition values.

[7] = tested on: NCI-60 human cancer cell lines; assay: NCI-60 screen (SRB), panel average; type: cell-based; settings: average over the NCI-60 cell lines of the table
Description: The human tumor cell lines of the cancer screening panel are grown in RPMI 1640 medium containing 5% fetal bovine serum and 2 mM L-glutamine. For a typical screening experiment, cells are inoculated into 96 well microtiter plates in 100 μL at plating densities ranging from 5,000 to 40,000 cells/well depending on the doubling time of individual cell lines. After cell inoculation, the microtiter plates are incubated at 37° C., 5% CO2, 95% air and 100% relative humidity for 24 h prior to addition of experimental drugs. After 24 h, two plates of each cell line are fixed in situ with TCA, to represent a measurement of the cell population for each cell line at the time of drug addition (Tz). Experimental drugs are solubilized in dimethyl sulfoxide at 400-fold the desired final maximum test concentration and stored frozen prior to use. At the time of drug addition, an aliquot of frozen concentrate is thawed and diluted to twice the desired final maximum test concentration with complete medium containing 50 µg/ml gentamicin. An additional four, 10-fold or M log serial dilutions are made to provide a total of five drug concentrations plus control. Aliquots of 100 μl of these different drug dilutions are added to the appropriate microtiter wells already containing 100 μl of medium, resulting in the required final drug concentrations. Following drug addition, the plates are incubated for an additional 48 h at 37° C., 5% CO2, 95% air, and 100% relative humidity. For adherent cells, the assay is terminated by the addition of cold TCA. Cells are fixed in situ by the gentle addition of 50 μl of cold 50% (w/v) TCA (final concentration, 10% TCA) and incubated for 60 minutes at 4° C. The supernatant is discarded, and the plates are washed five times with tap water and air dried. Sulforhodamine B (SRB) solution (100 l) at 0.4% (w/v) in 1% acetic acid is added to each well, and plates are incubated for 10 minutes at room temperature. […] Bound stain is subsequently solubilized with 10 mM trizma base, and the absorbance is read on an automated plate reader at a wavelength of 515 nm. […]

[8] = target: KIT (Homo sapiens, UniProt P10721); assay: Tyrosine kinase inhibition assay; type: biochemical; settings: single concentration 1.0 μM, read-out: percent inhibition
Description: as §1
The inhibition activities of compounds were determined in biochemical assays using single concentration (1.0 μM) measurements. The results were provided as percent inhibition values. […]

MET (cMet), sequence (P08581 25-1390): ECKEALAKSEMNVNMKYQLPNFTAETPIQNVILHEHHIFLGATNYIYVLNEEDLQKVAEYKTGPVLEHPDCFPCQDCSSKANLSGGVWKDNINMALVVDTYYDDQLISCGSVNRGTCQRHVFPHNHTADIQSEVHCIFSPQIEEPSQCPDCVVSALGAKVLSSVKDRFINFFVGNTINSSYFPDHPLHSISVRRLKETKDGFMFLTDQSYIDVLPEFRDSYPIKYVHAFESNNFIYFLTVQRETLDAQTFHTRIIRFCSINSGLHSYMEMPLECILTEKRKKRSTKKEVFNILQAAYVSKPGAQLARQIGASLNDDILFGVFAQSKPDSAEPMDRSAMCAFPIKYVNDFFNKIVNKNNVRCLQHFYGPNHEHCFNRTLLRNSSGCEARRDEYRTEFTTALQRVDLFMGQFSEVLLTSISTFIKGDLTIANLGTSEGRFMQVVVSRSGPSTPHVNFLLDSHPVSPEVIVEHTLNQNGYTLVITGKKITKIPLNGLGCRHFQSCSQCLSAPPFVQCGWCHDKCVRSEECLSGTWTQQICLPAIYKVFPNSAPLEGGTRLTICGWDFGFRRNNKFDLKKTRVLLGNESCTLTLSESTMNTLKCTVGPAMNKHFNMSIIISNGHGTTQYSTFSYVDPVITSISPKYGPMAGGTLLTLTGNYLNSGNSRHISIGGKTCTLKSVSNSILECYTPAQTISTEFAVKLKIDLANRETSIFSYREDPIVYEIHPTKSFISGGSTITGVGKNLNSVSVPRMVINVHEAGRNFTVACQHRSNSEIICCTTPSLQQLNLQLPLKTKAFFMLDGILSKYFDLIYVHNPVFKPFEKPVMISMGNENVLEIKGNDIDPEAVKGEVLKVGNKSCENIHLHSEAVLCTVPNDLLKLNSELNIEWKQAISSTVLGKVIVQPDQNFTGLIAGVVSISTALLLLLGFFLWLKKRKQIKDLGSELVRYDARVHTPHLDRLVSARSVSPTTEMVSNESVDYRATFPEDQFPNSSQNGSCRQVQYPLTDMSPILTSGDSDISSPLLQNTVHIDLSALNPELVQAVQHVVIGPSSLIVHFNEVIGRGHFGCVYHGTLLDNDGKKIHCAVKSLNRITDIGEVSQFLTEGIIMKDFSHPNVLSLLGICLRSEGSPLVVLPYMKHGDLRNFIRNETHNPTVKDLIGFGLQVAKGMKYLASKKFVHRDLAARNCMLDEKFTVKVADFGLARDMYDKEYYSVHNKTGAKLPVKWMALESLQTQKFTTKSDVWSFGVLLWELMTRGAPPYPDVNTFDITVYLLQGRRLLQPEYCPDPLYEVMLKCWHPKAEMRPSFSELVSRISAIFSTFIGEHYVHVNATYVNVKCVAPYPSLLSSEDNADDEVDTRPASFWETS
PTK2 (FAK), sequence (Q05397 whole entry): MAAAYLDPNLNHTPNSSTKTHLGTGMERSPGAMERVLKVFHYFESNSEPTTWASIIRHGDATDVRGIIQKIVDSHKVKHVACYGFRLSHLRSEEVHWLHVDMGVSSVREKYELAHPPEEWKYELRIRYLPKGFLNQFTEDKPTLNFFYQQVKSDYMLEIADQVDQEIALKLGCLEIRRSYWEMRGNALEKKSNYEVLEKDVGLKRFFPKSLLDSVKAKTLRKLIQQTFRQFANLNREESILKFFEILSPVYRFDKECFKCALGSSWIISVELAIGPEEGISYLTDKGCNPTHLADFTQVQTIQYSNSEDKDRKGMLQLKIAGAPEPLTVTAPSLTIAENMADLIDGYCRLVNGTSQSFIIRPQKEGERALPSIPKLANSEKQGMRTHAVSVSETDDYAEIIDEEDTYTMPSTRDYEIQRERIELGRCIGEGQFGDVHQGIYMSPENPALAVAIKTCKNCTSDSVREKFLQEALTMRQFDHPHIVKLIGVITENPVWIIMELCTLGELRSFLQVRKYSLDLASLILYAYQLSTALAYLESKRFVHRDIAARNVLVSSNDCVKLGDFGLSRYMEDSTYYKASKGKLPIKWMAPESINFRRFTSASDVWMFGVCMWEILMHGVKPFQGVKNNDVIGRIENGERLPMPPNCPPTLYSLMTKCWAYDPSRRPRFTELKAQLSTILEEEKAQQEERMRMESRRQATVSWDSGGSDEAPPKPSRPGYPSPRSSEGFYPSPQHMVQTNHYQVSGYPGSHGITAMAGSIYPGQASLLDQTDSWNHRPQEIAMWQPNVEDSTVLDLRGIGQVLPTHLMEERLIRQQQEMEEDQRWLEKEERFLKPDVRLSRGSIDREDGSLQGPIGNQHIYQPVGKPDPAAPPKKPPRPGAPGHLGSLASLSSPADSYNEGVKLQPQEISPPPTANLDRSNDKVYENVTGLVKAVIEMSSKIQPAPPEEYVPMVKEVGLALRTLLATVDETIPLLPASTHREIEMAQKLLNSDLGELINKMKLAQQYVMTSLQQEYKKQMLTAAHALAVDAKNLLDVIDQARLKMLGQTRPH
EGFR (ErbB1), sequence (P00533 25-1210): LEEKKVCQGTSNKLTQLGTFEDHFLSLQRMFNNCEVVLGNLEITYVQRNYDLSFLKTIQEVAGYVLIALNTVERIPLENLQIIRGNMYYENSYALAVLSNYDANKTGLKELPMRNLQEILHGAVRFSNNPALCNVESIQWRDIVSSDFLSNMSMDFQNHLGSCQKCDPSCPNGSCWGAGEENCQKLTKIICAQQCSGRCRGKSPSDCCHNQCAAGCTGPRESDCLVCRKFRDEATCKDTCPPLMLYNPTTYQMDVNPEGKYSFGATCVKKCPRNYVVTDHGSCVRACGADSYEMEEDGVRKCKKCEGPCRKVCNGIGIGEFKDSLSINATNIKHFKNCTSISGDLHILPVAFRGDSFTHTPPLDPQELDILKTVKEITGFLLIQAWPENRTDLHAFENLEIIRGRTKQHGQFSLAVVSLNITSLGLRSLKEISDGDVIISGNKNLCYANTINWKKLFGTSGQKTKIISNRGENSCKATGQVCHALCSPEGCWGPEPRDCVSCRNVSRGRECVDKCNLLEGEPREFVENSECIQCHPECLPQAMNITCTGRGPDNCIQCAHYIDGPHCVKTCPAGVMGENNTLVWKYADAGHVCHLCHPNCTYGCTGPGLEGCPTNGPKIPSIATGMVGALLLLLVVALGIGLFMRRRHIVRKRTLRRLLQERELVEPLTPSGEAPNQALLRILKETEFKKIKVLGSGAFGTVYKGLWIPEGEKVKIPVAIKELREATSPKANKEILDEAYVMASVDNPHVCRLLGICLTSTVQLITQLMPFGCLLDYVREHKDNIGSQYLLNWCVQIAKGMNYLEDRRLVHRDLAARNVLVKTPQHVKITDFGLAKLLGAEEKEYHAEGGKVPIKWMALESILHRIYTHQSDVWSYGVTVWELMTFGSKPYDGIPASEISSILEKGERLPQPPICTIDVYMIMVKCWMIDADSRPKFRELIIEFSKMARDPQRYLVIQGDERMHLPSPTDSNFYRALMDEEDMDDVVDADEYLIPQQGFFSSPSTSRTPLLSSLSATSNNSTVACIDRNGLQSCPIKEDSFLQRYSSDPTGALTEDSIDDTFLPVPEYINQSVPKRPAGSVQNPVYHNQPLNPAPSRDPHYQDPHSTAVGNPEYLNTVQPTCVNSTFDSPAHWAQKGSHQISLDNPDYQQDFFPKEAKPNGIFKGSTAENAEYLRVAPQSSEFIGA
ABL1, sequence (P00519 whole entry): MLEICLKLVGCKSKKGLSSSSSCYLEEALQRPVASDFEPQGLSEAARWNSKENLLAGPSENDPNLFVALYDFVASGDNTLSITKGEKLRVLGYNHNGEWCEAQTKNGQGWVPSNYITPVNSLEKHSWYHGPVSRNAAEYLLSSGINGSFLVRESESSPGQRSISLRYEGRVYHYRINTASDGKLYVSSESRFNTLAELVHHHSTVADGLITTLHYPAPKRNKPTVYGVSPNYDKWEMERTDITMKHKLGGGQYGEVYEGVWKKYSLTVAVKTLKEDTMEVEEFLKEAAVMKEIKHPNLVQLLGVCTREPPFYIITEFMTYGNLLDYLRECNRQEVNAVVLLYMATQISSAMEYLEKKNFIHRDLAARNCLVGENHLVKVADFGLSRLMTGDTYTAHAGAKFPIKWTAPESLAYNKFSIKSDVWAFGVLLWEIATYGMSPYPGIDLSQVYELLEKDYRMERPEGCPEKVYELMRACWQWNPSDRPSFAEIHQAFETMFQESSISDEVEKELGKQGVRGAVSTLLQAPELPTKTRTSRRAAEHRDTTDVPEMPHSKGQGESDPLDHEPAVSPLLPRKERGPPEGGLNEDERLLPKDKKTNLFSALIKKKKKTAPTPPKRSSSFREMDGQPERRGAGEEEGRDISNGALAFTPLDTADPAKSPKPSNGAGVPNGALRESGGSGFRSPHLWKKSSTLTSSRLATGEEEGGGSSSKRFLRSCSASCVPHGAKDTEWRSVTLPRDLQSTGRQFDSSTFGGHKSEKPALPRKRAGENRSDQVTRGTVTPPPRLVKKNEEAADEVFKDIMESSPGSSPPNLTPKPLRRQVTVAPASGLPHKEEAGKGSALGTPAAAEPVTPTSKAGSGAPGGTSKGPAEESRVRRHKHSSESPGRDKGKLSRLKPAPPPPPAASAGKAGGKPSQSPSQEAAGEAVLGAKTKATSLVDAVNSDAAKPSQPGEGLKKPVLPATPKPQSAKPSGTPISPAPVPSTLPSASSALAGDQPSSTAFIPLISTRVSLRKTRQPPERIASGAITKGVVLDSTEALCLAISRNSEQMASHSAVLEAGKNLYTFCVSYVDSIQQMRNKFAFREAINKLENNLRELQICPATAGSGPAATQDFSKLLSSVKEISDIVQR

COc1cc2nccc(Oc3ccc(NC(=O)C4(C(=O)Nc5ccc(F)cc5)CC4)cc3)c2cc1OC [Cabozantinib, reference compound]
inhibition at 1 µM [1]: 67% | inhibition at 1 µM [2]: 32%

COc1cc2nccc(Oc3ccc(NC(=O)C4(NC(=O)c5ccc(F)cc5)CC4)cc3F)c2cc1OC [Cbo-02, N-(1-((4-((6,7-diMethoxyquinolin-4-yl)oxy)-3-fluorophenyl)carbamoyl)cyclopropyl)-4-fluorobenzamide]
inhibition at 1 µM [1]: 30% | inhibition at 1 µM [3]: 20% | inhibition at 1 µM [2]: 44% | inhibition at 1 µM [4]: 13% | inhibition at 1 µM [5]: 24% | inhibition at 1 µM [6]: 100% | GI50 [7]: 2.56 µM | inhibition at 1 µM [8]: 33%

COc1cc2nccc(Oc3ccc(NC(=O)C4(NC(=O)c5ccc(F)cc5)CC4)cc3F)c2cc1Oc1ccc(N)cc1F [Cbo-10]
inhibition at 1 µM [1]: 61% | inhibition at 1 µM [3]: 33% | inhibition at 1 µM [2]: 88% | inhibition at 1 µM [4]: 64% | inhibition at 1 µM [5]: 32% | inhibition at 1 µM [6]: 95% | GI50 [7]: 1.57 µM | inhibition at 1 µM [8]: 48%

COc1cc2nccc(Oc3ccc(NC(=O)C4(NC(=O)c5ccc(F)cc5)CC4)cc3F)c2cc1Oc1c(F)cc(N)cc1F [Cbo-14]
inhibition at 1 µM [1]: 62% | inhibition at 1 µM [3]: 29% | inhibition at 1 µM [2]: 89% | inhibition at 1 µM [4]: 77% | inhibition at 1 µM [5]: 44% | inhibition at 1 µM [6]: 97% | inhibition at 1 µM [8]: 45%

COc1cc2nccc(Oc3ccc(NC(=O)C4(C(=O)Nc5ccc(F)cc5)CC4)cc3F)c2cc1Oc1ccc(N)cc1F [Cbo-23]
inhibition at 1 µM [1]: 76% | inhibition at 1 µM [3]: 66% | inhibition at 1 µM [2]: 58% | inhibition at 1 µM [4]: 100% | inhibition at 1 µM [5]: 58% | pIC50 [6]: 7.45 | inhibition at 1 µM [6]: 98% | GI50 [7]: 0.73 µM | inhibition at 1 µM [8]: 51%

CNC(=O)c1cc2c(Oc3ccc(NC(=O)C4(C(=O)Nc5ccc(F)cc5)CC4)cc3)ccnc2cc1OC [Zanzalintinib, reference compound]
pIC50 [6]: 8.37
